This is an account of results in a melting point compilation (Tetko et al.; mined from patent text by program, amines drawn as free bases though some values may be those of a salt).

`COC(=O)C[C@H](O)C[C@H](O)CCc1c(-c2ccc(F)cc2)c(-c2ccccc2)c(C(=O)Nc2ccccc2)n1C(C)C` registered a melting point of 154 to 157 °C. As for `O=C(N[C@H](CO)c1ccccc1)c1[nH]c2ccc(Cl)cc2c1S(=O)(=O)c1ccccc1`, the figure is 155 to 160 °C. Turning to `C#CC[C@H](c1nc2cc(Cl)ccc2c(=O)n1Nc1ccccc1)N(CCCN)C(=O)c1ccc(C)cc1`, the melting point is 130 to 133 °C.

In turn, `COC(=O)c1ccc(N2CCSC2=N)c([N+](=O)[O-])c1` yielded a melting point of 156 °C. In the case of `C=CCC(CC=C)n1c(CC)nc2c1c(=O)n(C)c(=O)n2-c1ccc(Cl)cc1Cl` it was 145 to 146 °C; in that of `O=C(CCC1CCN(Cc2ccccc2)CC1)c1ccc(N2CCCC2)cc1`, 144 to 145 °C; in that of `Cc1nc2c(N)nc3ccccc3c2n1CCOCC#Cc1ccccc1`, 143 °C. As for `COc1cc(C(C)(C)C)c(OC(C)=O)c(C(C)(C)C)c1`, the figure is 96.6 °C; as for `CC(=O)NC[C@H]1CN(c2ccc(C(=O)c3cnc4cnc(Br)cn34)cc2)C(=O)O1`, 216 to 220 °C; as for `CC(C)(CNc1c(C(N)=O)cnn2cccc12)N1CCOCC1`, 179 °C. In the case of `Cc1noc(NS(=O)(=O)c2cc(Br)c(Cl)s2)c1Br` it was 143 to 145 °C; in that of `CO[C@]12C[C@@H](CCN3CCC(O)(c4ccc(Cl)cc4)CC3)CN(C)[C@@H]1Cc1c[nH]c3cccc2c13`, 133 to 139 °C. Compound `FC(F)(F)c1cc(-c2ccc(Cl)nn2)ccc1Cl` registered a melting point of 211 to 214 °C. As for `CC1(OCCN(Cc2ccccc2)C(=O)C(F)(F)F)C=CC=C([N+](=O)[O-])C1NC(=O)C(F)(F)F` (stereo not drawn), the figure is 90 to 92.5 °C; as for `COCCO[C@@H]1c2ccn3c(C)c(C)nc3c2N[C@H](c2ccccc2)[C@H]1OC(=O)OC`, 176 to 177 °C. As for `COc1ccc(-c2ccc(=O)n(Cc3ccc(Cl)cc3F)c2)cn1`, the figure is 136 °C; as for `O=C=Nc1ccc(Oc2cc(Cl)ncn2)cc1`, 103 °C; as for `CN1C(c2cnc3ccccc3c2)c2ccccc2CC1(C)C` (stereo not drawn), 116 to 118 °C. As for `COc1ccc(/C=C/C(=O)Nc2ccccc2C(=O)O)cn1`, the figure is 209 to 211 °C; as for `O=C(O)CCC1CC(c2ccccc2)CCC1O` (stereo not drawn), 154 to 155 °C; as for `CC1OC(O)(Cl)CC(NC(=O)C(F)(F)F)C1(O)OC(=O)C(F)(F)F` (stereo not drawn), 132 to 134 °C. `CN(c1cccc2cc(C3=NCC(CC(=O)O)S3)[nH]c12)S(=O)(=O)c1ccccc1C(F)(F)F` (stereo not drawn) came in with a melting point of 170 to 172 °C. The compound `Fc1cc(-c2ccno2)c(Cl)cc1Cl` returned a melting point of 112 to 113 °C. In the case of `CC(=O)Nc1ccc(C=C(C#N)C(=O)OCC[Si](C)(C)C)cc1` it was 136 °C.

On to `COc1cc(OC)cc(C(=O)NC(=O)Nc2ccc3c(c2)NC(=O)/C3=C\c2[nH]c(C)c(C(=O)O)c2C)c1`, for which the melting point was over 300 °C.

Turning to `Nc1ccc2c(c1)ncn2-c1cccc(-c2cccnc2)c1`, the melting point lay in the range of 172 to 175 °C.

`CSC(=NC(=O)NC(C)C)NC(=O)NC(C)C` displayed a melting point of 125 to 127 °C. In the case of `Cc1nn(-c2cc(OC(F)F)n(C)n2)c(-c2ccc(Cl)cc2)c1CC(=O)O` it was 112 °C; in that of `COc1cccc2c1cc(C)n2Cc1c(Cl)cccc1Cl`, 154 to 157 °C; in that of `CCCCOc1ccc(S(=O)(=O)C2(C(=O)NO)CCN(CCCOc3ccccc3)CC2)cc1`, 84 °C. As for `COC(c1cc(-c2ccc(F)cc2)c(-c2ccc(F)cc2)n1C)(C(F)(F)F)C(F)(F)F`, the figure is 108 to 110 °C. In the case of `CC(=O)Oc1ccc(-n2c3c(c(C(C)=O)c2-c2ccccc2)-c2ccccc2CC3)cc1C(=O)O` it was 223 to 226 °C; in that of `CC(C)(C)OC(=O)N1CCC[C@@H](O)[C@H](N)C1`, 64 to 67 °C. As for `COc1ccc2c(c1OC)CC[C@H]2NC(C)=O`, the melting point worked out at 175 °C. In the case of `CC(=O)Nc1c(-c2ccccc2C)nc2c3ccccc3ccn12` it was over 270 °C; in that of `O=C(O)c1cccc(-c2nccc(-c3ccc(F)cc3)n2)c1`, 239 to 241 °C; in that of `COc1ccc(-c2cc3ccccc3[nH]2)cc1OC`, 188 °C. In the case of `Nc1ccc2nc3c(c(N)c2c1)C(=O)CCC3` it was 310 °C; in that of `CCCc1c(CSc2nnc(SCC(=O)O)s2)ccc(C(C)=O)c1O`, 116 to 118 °C. As for `COc1cc2c(cc1C)CCN(C)C2C1(c2ccsc2)CC1` (stereo not drawn), the figure is 103 to 105 °C. Turning to `C=Cc1cc2c(c3ccc(O)cc13)OCc1cc(O)ccc1-2`, the melting point is over 220 °C. As for `O=C(N[C@H](Cc1ccccc1)C(=O)O)OCc1cc2cc(-c3ccccc3)ccc2o1`, the melting point was in the range of 154 to 156 °C. As for `O=c1c(CCCc2ccncc2)cc2cccnc2n1-c1ccc2nonc2c1`, the figure is 192 to 194 °C; as for `O=C(Nc1c[nH]nc1C(=O)NCC(O)Cc1ccccc1)c1ccccn1` (stereo not drawn), 180 to 181 °C.

In the case of `COc1cc2oc(=O)c(CCN3CCC(c4ccccc4)CC3)c(C)c2c(OC)c1OC`, the melting point lay within 117 to 118 °C. As for `C[Si]1(C)CCCCCC[Si](C)(C)O[Si](C)(C)CCCCCC[Si](C)(C)O1`, the figure is 48 to 50 °C. Turning to `CCC(=O)c1c(-c2ccncc2)[nH]c(-c2ccncc2)c1CC`, the melting point was 209 to 211 °C.

In turn, `CC(=O)OCc1cc2c3ccccc3nc(=O)n2[nH]1` displayed a melting point of 186 to 187 °C. In the case of `Cc1ccc(OCc2c(F)cccc2Cl)c(N)n1` it was 108 to 109 °C; in that of `N#Cc1ccc(C(=O)NNc2c(Cl)cc(C(F)(F)F)cc2Cl)cc1`, 185 to 186 °C. In the case of `O=c1[nH]c2ccsc2[nH]c1=O` it was over 340 °C; in that of `CCc1cccc(CC(=O)O)c1OCCCc1cn(-c2ccc(C(F)(F)F)cn2)nc1C(C)(C)C`, 98 to 99 °C; in that of `O=C(O)C(=O)CC(=O)c1cn(Cc2ccc(F)cc2)c2ccccc12`, 161 to 162 °C.

Turning to `N#Cc1cc(O)c(O)c(C#N)c1CCC(=O)O`, the melting point fell in the range of 210 to 220 °C. Compound `Clc1ccc2c3c(cnc2c1)OC1(C=N3)CCCCC1` yielded a melting point of 216 to 218 °C. Compound `C[C@]1(COc2ccc(N3CCC(OCc4ccc(OC(F)(F)F)cc4)CC3)cc2)Cn2cc([N+](=O)[O-])nc2O1` returned a melting point of 214 to 218 °C.

`O=C(CCC1=C(n2nc(-c3c(-c4ccccc4)nn4ccccc34)ccc2=O)CCCC1)OCc1ccccc1` yielded a melting point of 111 to 113 °C. As for `O=C1C=C(c2c(-c3ccccc3)nn3ccccc23)CCN1`, the figure is 188 to 189 °C; as for `CC(=O)NC1C(NC(=O)NCCCl)OC(CO)C(O)C1O` (stereo not drawn), 181 to 182 °C; as for `CCC(=O)c1cc2c(s1)CCCN(CCCCCl)C2=O`, 91 to 92 °C. As for `COc1c(C(C)(C)C)cc(C(=O)O)cc1C(C)(C)C`, the figure is 192 to 195 °C. In the case of `COc1cc2c(c3c1OC(C)(C)C3)C(c1cccnc1)=NC(C)(C)C2`, the melting point lay within 113 to 114 °C.

`CC1(C)C=C(CS(=O)(=O)c2ccccc2)C(C)(C)CC1` had a melting point of 48 to 50 °C. As for `CCCN1C(=O)N(C2CCN(Cc3cccc(CO)c3)CC2)C(c2ccccc2)c2ccccc21` (stereo not drawn), the figure is 108 to 112 °C. In the case of `CC#CCOc1ccc(S(=O)(=O)NC[C@@H](C(=O)NO)N2CCN(S(C)(=O)=O)CC2)cc1` it was 150 °C. Consider `COC(=O)/C=C/n1cnc2c(OC)cccc2c1=O`, for which the melting point lay in the range of 203 to 208 °C. For the compound `CCCCCCCCCCCCCCCCCCOc1ccc(C(=O)Nc2ccc(O)cc2)cc1`, the melting point amounted to 193 °C. As for `O=C(NO)c1ccc(CNC(=O)c2[nH]c(-c3ccccc3)cc2-c2ccc(F)cc2)cc1`, the figure is 215 to 216 °C; as for `NS(=O)(=O)c1ccc(NN=Cc2ccc(Cl)cc2)cc1`, 181 to 182 °C. In the case of `CCCCc1nc2c(N)nc(C)c(C)c2n1CC(C)(C)NC(=O)c1ccccc1` it was 150 to 152 °C.

`C=CC1(N)CN=C(c2ccc(Cl)c(N(C)C)c2F)N=C1C(=O)OC` (stereo not drawn) showed a melting point of 136 to 137 °C. As for `CC(C)c1ccc(C(C[N+](=O)[O-])SC(=S)N(C)C)cc1` (stereo not drawn), the figure is 119 to 120 °C; as for `COc1cc(O)c([N+](=O)[O-])c2ccccc12`, 128 to 130 °C.

Compound `Cc1cc(SC2CC(=O)N(c3ccccc3)C2=O)cc(C(C)(C)C)c1O` (stereo not drawn) yielded a melting point of 158 to 160 °C. As for `CC12CCC(C1)C(C)(C)C2(S)CC#N` (stereo not drawn), the figure is 170 to 171 °C. As for `COc1ccc(Cl)c(NC(C)=S)c1`, the figure is 92 to 93 °C; as for `CCCCNC(=O)N1N=C(c2ccc([N+](=O)[O-])cc2)c2cc(Cl)ccc2CC1C` (stereo not drawn), 150 °C; as for `O=C1CCCc2ccc(OCCCCN3CCN(c4cccc5ccc(F)cc45)CC3)nc2N1`, 202 to 203 °C. The compound `CCCCNC(=O)NC(=N)c1ccccc1` showed a melting point of 139 to 141 °C. In the case of `COC(=O)c1nc(-c2ccc(Cl)c(OC)c2F)nc(N)c1OCC(F)(F)F` it was 123 to 125 °C; in that of `CN1CCC(OC2c3ccccc3CCn3c2nc(I)c3C#N)CC1` (stereo not drawn), 195 °C. For `O=C1Nc2ccc(Cl)cc2C1(O)Cc1ccccc1` (stereo not drawn), the melting point lay in the range of 204 to 205 °C. In the case of `COC(=O)C(Oc1cc(OCc2ccsc2)cc(F)c1C#N)c1ccccc1Cl` (racemic) it was 143 to 144 °C; in that of `COc1cc2c(c3c1OC(C)(C)C3)C(c1cccc(-c3ccc4ccccc4n3)c1)=NC(C)(C)C2`, 167 to 169 °C; in that of `O=C(O)c1ccc(S(=O)(=O)Oc2c(Br)cc(-c3ccc(-c4c(Cc5ccccc5)sc5ccccc45)cc3)cc2Br)cc1O`, 192 to 194 °C. In the case of `CCN(CC)CCNC(=O)c1ccc([N+](=O)[O-])cc1OC` it was 59.3 °C; in that of `COP(=O)(c1ccccc1)c1ccc2c(c1)C(NC(=NC#N)Nc1ccc(Cl)cc1)C(O)C(C)(C)O2` (stereo not drawn), 150 °C. As for `CC(C(=O)Nc1ccc(C(=O)O)cc1)c1ccc2c(c1)C(C)(C)CCC2(C)C` (stereo not drawn), the figure is 195 to 196 °C.

In general, melting point refers to the temperature of the solid-liquid transition.
